The values that follow are results of earlier work, collected in article PMC6613765 (Journal of Virology, 2019).

Usually EC50 stands for the concentration that produces a half-maximal response.

In series [1] the test system is MERS-CoV. The settings on record: cited from earlier work.
The test system of series [2] is SARS-CoV. The settings on record: cited from earlier work.
For series [3], the system named is SARS-CoV. The settings on record: mouse, in vivo; cited from earlier work.
The subject of series [4] is HCoV-229E. To be noted: read-out: EC50, HCoV-229E; CoV-infected human primary cells; cited from earlier work.
In series [5] the test system is MERS-CoV. The settings on record: read-out: EC50, MERS-CoV; cited from earlier work.

Take `CCC(CC)COC(=O)[C@H](C)N[P@](=O)(OC[C@H]1O[C@@](C#N)(c2ccc3c(N)ncnn23)[C@H](O)[C@@H]1O)Oc1ccccc1` [GS-5734]: in series [1], the “IC50, MERS-CoV replication” value is on record as “submicromolar”. In addition, the “IC50, SARS-CoV replication” value in series [2] was “submicromolar”. Further, in series [3], the lung viral load result was “significantly reduced the lung viral load”.
For `COC(=O)[C@H]1[C@@H](O)[C@@]2(O)c3c(OC)cc(O[C@@H]4O[C@@H]([C@H](O)CO)CO[C@H]4OC)cc3O[C@@]2(c2ccc(OC)cc2)[C@@H]1c1ccccc1` [silvestrol], the figures for the concentration giving a half-maximal response (EC50) in series [4] and in series [5] were 3 nM and 1.3 nM, respectively.
